This experiment deals with CD34+ cells from cord blood. Kind of experiment: CXCR4 expression on CD34+ cells after ex vivo pulse exposure (flow cytometry). The settings on record: for up regulation of CXCR4 on the surface of CD34+ cells: cord blood samples, ex vivo pulse exposure, cytometry histograms compared to isotype control (FIG. 1). The class given is cell-based, human. Here is the method:
Un-manipulated hematopoietic grafts or purified hematopoietic stem cell populations (e.g., SKL cells in mice or CD34^+ cells in humans) are incubated with an EP4 specific agonist: 5-[(1E,3R)-4,4-difluoro-3-hydroxy-4-phenyl-1-buten-1-yl]-1-[6-(2H-tetrazol-5R-yl)hexyl]-2-pyrrolidinone (i.e. L-902,688), on ice or at room temperature at concentrations of 0.001-10 microMolar agonist per 1-10 million cells in 1 ml of culture medium, e.g. IMDM, for 15 minutes-6 hrs. After incubation, the cells are washed 3 times in sterile media or saline and administered to recipients, intravenously. L-902,688 was a generous gift from Merck Frosst (Kirkland, Canada) (Young, et al., 2004).
Referring now to FIG. 1. This graph illustrates that treatment of cells with EP4 agonist ex vivo specifically up regulates CXCR4 expression on CD34^+ cells. […] The bar graph indicator data measured from such experiments graphed as a function of different compounds used dmPGE2, Butaprostone, sulprostone and EP4.
Referring now to FIG. 2. This graph illustrates that signaling via the EP4 receptor is responsible for up regulation of CXCR4 expression. […] Treatment with EP4 agonist ex vivo up regulates CXCR4 expression on CD34^+ cells. […] In the bar chart this effort is normalized to 100%. […] The fact that up regulation of CXCR4 by an EP4 selective agonist is blocked by a selective EP4 antagonist, but not by EP1, 2, 3, antagonist, provides additional evidence that up regulation is mediated through the EP4 receptor.

Turning to `O=C1CC[C@H](/C=C/[C@@H](O)C(F)(F)c2ccccc2)N1CCCCCCc1nn[nH]n1` [EP4 agonist, 5-[(1E,3R)-4,4-difluoro-3-hydroxy-4-phenyl-1-buten-1-yl]-1-[6-(2H-tetrazol-5R-yl)hexyl]-2-pyrrolidinone], the “up regulation of CXCR4 on the surface of CD34+ cells” value was “significant up regulation”. Besides, for the setting “ex vivo treatment, combined data for 8 cord blood samples (FIG. 2)”, the “up regulation of CXCR4 expression on CD34+ cells” value is reported as “about 3 fold”.
On to `CCCCC(C)(C)[C@H](O)/C=C/[C@H]1[C@H](O)CC(=O)[C@@H]1C/C=C\CCCC(=O)O` [dmPGE2, 16,16 dimethylprostaglandin E2], for which the “up regulation of CXCR4 on the surface of CD34+ cells” value is listed as “significant up regulation”.

(Values after US11459545B2, “Methods to enhance delivery and engraftment of stem cells including the identification of specific prostaglandin E2 receptors” (INDIANA UNIVERSITY RESEARCH AND TECHNOLOGY CORPORATION, priority 2009, dated 2022).)
